Results: patent US8178506B2, “Oligomeric compounds and compositions for use in modulation of small non-coding RNAs” (Regulus Therapeutics Inc., priority 2003, dated 2012)
In the oligonucleotide strings, read from the 5' end, every base follows the letter of its sugar. An asterisk marks phosphorothioate; unmarked linkages are phosphodiester. Other units and linkages are bracketed, terminal groups are in braces. A string of capitals states the bases alone. e = 2'-O-(2-methoxyethyl) (MOE); [5mC] = 5-methylcytosine; d = 2'-deoxy (DNA)

Legend:
Type in all cases: cell-based, human
[1] = system: Glut4; test: Glut4 mRNA expression in adipocytes (real-time PCR)
[2] = system: adipocytes; test: Triglyceride accumulation assay in adipocytes
[3] = system: PPARγ; test: PPARγ mRNA expression in adipocytes (real-time PCR)
[4] = system: aP2; test: aP2 mRNA expression in adipocytes (real-time PCR); conditions: for aP2 mRNA: Table 75
[5] = system: HSL; test: HSL mRNA expression in adipocytes (real-time PCR)
[6] = Table 17, differentiating adipocytes, control = treatment with ISIS 342673
[7] = differentiating adipocytes transfected with oligomeric compound, Table 75
[8] = differentiating adipocytes transfected with oligomeric compound
[9] = Table 18, differentiating adipocytes, control = treatment with ISIS 342673
[10] = Table 20, adipocyte differentiation assay as in Example 13

Substance	GLUT4 mRNA [1, 6]	GLUT4 mRNA [1, 7]	TG (triglyceride accumulation) [2, 6]	TG (triglyceride accumulation) [2, 7]	PPAR gamma mRNA [3, 6]	PPAR gamma mRNA [3, 7]	AP2 mRNA [4, 6]	aP2 mRNA [4, 8]	HSL mRNA [5, 6]	HSL mRNA [5, 7]	other results
328137 (eG*eT*eA*eA*eG*e[5mC]*eG*e[5mC]*eA*eG*e[5mC]*eT*e[5mC]*e[5mC]*eA*e[5mC]*eA*eG*eG*e[5mC]*eT; anti-miR) [compound 328137]	88.5 percentage of control	29 percentage of untreated control (UTC)	83.2 percentage of control	37 percentage of untreated control (UTC)	85.7 percentage of control	36 percentage of untreated control (UTC)	99.6 percentage of control	45 percentage of untreated control (UTC)	86.3 percentage of control	25 percentage of untreated control (UTC)	
328133 (eT*eG*eA*eA*eG*eG*eT*eT*e[5mC]*eG*eG*eA*eG*eA*eT*eA*eG*eG*e[5mC]*eT*eA; anti-miR) [compound 328133]	91.9 percentage of control	59 percentage of untreated control (UTC)	61.2 percentage of control	43 percentage of untreated control (UTC)	63.8 percentage of control	53 percentage of untreated control (UTC)	69.5 percentage of control	66 percentage of untreated control (UTC)	63.0 percentage of control	49 percentage of untreated control (UTC)	
328759 (antisense eG*eA*eG*eG*eG*dA*dT*dT*dG*dT*dA*dT*dG*dA*dA*e[5mC]*eA*eT*e[5mC]*eT) [compound 328759]											GLUT4 mRNA [1, 8]: 66 percentage of untreated control (UTC); TG (triglyceride accumulation) [2, 8]: 87 percentage of untreated control (UTC); PPAR gamma mRNA [3, 8]: 95 percentage of untreated control (UTC); AP2 mRNA [4, 8]: 108 percentage of untreated control (UTC); HSL mRNA [5, 8]: 105 percentage of untreated control (UTC)
328117 (antisense eT*e[5mC]*e[5mC]*eA*e[5mC]*eA*eA*eA*eG*e[5mC]*eT*eG*eA*eA*e[5mC]*eA*eT*eG*eT*e[5mC]*eT) [compound 328117]	68.1 percentage of control	13 percentage of untreated control (UTC)	55.0 percentage of control	16 percentage of untreated control (UTC)	64.1 percentage of control	42 percentage of untreated control (UTC)	65.4 percentage of control	28 percentage of untreated control (UTC)	61.7 percentage of control	18 percentage of untreated control (UTC)	
341806 (antisense GCCAATATTTCTGTGCTGCTA; all 2'-MOE, all phosphorothioate, methylation of C not given here) [compound 341806]		58 percentage of untreated control (UTC)				70 percentage of untreated control (UTC)		83 percentage of untreated control (UTC)		77 percentage of untreated control (UTC)	GLUT4 mRNA [1, 9]: 69.4 percentage of control; TG (triglyceride accumulation) [2, 9]: 83.2 percentage of control; PPAR gamma mRNA [3, 9]: 72.6 percentage of control; AP2 mRNA [4, 9]: 75.8 percentage of control; HSL mRNA [5, 9]: 73.4 percentage of control
328119 (antisense eA*eA*eT*eA*eA*e[5mC]*eA*e[5mC]*eA*e[5mC]*eA*eT*e[5mC]*e[5mC]*eA*e[5mC]*eT*eT*eT*eA*eA) [compound 328119]	95.2 percentage of control	104 percentage of untreated control (UTC)	90.2 percentage of control	109 percentage of untreated control (UTC)	82.7 percentage of control	102 percentage of untreated control (UTC)	99.9 percentage of control	119 percentage of untreated control (UTC)	98.5 percentage of control	101 percentage of untreated control (UTC)	
341805 (antisense ACCCTTATCAGTTCTCCGTCCA; all 2'-MOE, all phosphorothioate, methylation of C not given here) [compound 341805]		74 percentage of untreated control (UTC)				77 percentage of untreated control (UTC)		90 percentage of untreated control (UTC)		86 percentage of untreated control (UTC)	GLUT4 mRNA [1, 9]: 88.2 percentage of control; TG (triglyceride accumulation) [2, 9]: 78.1 percentage of control; PPAR gamma mRNA [3, 9]: 80.4 percentage of control; AP2 mRNA [4, 9]: 81.9 percentage of control; HSL mRNA [5, 9]: 81.8 percentage of control
338664 (antisense e[5mC]*eA*eG*eA*e[5mC]*eT*e[5mC]*e[5mC]*e[5mC]*eA*eA*e[5mC]*eT*eG*eA*e[5mC]*e[5mC]*eA*eG*eA) [compound 338664]											Glut4 [1, 10]: 1.81; TG [2, 10]: 1.42; PPAR gamma [3, 10]: 0.86; AP2 [4, 10]: 1.01; HSL [5, 10]: 0.76
328677 (eT*e[5mC]*e[5mC]*eT*eG*dG*dA*dT*dG*dA*dT*dA*dT*d[5mC]*dT*eA*e[5mC]*e[5mC]*eT*e[5mC]; antisense) [compound 328677]											GLUT4 mRNA [1, 8]: 44 percentage of untreated control (UTC); TG (triglyceride accumulation) [2, 8]: 34 percentage of untreated control (UTC); PPAR gamma mRNA [3, 8]: 89 percentage of untreated control (UTC); AP2 mRNA [4, 8]: 61 percentage of untreated control (UTC); HSL mRNA [5, 8]: 68 percentage of untreated control (UTC)
328115 (antisense eA*eG*eA*eA*eG*eG*eT*eG*eG*eG*eG*eA*eG*e[5mC]*eA*eG*e[5mC]*eG*eT*e[5mC]*eA) [compound 328115]		84 percentage of untreated control (UTC)		53 percentage of untreated control (UTC)		80 percentage of untreated control (UTC)		74 percentage of untreated control (UTC)		75 percentage of untreated control (UTC)	GLUT4 mRNA [1, 9]: 132.0 percentage of control; TG (triglyceride accumulation) [2, 9]: 108.7 percentage of control; PPAR gamma mRNA [3, 9]: 95.8 percentage of control; AP2 mRNA [4, 9]: 80.0 percentage of control; HSL mRNA [5, 9]: 89.0 percentage of control
328129 (antisense eA*eG*e[5mC]*e[5mC]*eT*e[5mC]*e[5mC]*eT*eT*e[5mC]*eT*eT*e[5mC]*eT*e[5mC]*eG*eT*eA*e[5mC]*eT*eA) [compound 328129]	60.0 percentage of control	36 percentage of untreated control (UTC)	53.8 percentage of control	19 percentage of untreated control (UTC)	71.8 percentage of control	59 percentage of untreated control (UTC)	67.6 percentage of control	54 percentage of untreated control (UTC)	56.5 percentage of control	34 percentage of untreated control (UTC)	
